According to ChEMBL document CHEMBL3596146, “Design, synthesis, and biological evaluation of a series of alkoxy-3-indolylacetic acids as peroxisome proliferator-activated receptor γ/δ agonists” (Bioorg Med Chem, 2015):
Each block holds one compound with its values, some of them ahead of it. The source made the active and inactive calls. The rule behind the calls is not given here.

Assays:
Mus musculus [1] = experiment: Increase in body weight in C57BLKS/J-Lepr/Lepr db/db mouse at 10 mg/kg, po qd for 18 days administered via gavage measured on day 16 relative to untreated control; type: ADME, organism-based; settings: in vivo, 432 h
Mus musculus [2] = experiment: Decrease in fasting blood glucose level in C57BLKS/J-Lepr/Lepr db/db mouse at 10 mg/kg, po qd for 18 days administered via gavage by ELISA; type: functional, organism-based
Mus musculus [3] = experiment: Decrease in serum insulin level in C57BLKS/J-Lepr/Lepr db/db mouse at 10 mg/kg, po qd for 18 days administered via gavage by ELISA; type: functional, organism-based
Mus musculus [4] = experiment: Decrease in serum Hb1Ac level in C57BLKS/J-Lepr/Lepr db/db mouse at 10 mg/kg, po qd for 18 days administered via gavage by ELISA; type: functional, organism-based
Mus musculus [5] = experiment: Increase in triglyceride content in C57BLKS/J-Lepr/Lepr db/db mouse liver at 10 mg/kg, po administered via gavage by hematoxylin-eosin staining; type: functional
[6] = target: T1, Peroxisome proliferator-activated receptor alpha (Homo sapiens) (UniProt Q07869); experiment: Agonist activity at PPAR-alpha (unknown origin) expressed in CV-1 cells co-transfected with tk-PPRE-luciferase vector at 10 uM after 24 hrs by transactivation assay relative to GW7647; type: cell-based
T1 sequence (whole entry): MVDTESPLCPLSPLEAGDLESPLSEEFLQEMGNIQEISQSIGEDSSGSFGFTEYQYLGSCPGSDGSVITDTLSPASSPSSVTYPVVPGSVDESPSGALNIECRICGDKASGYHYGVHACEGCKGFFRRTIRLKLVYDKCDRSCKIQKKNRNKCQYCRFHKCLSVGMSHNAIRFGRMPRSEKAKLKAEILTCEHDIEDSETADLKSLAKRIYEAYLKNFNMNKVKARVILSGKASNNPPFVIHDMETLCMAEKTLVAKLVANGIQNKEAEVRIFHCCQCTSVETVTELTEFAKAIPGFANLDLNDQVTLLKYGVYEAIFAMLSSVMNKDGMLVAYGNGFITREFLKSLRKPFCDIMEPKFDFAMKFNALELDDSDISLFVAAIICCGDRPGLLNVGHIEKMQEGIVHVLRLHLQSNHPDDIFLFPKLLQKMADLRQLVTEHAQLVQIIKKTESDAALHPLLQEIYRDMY

[7] = target: T2, Peroxisome proliferator-activated receptor gamma (Homo sapiens) (UniProt P37231); experiment: Agonist activity at PPAR-gamma (unknown origin) expressed in CV-1 cells co-transfected with tk-PPRE-luciferase vector at 10 uM after 24 hrs by transactivation assay relative to rosiglitazone; type: cell-based
T2 sequence (whole entry): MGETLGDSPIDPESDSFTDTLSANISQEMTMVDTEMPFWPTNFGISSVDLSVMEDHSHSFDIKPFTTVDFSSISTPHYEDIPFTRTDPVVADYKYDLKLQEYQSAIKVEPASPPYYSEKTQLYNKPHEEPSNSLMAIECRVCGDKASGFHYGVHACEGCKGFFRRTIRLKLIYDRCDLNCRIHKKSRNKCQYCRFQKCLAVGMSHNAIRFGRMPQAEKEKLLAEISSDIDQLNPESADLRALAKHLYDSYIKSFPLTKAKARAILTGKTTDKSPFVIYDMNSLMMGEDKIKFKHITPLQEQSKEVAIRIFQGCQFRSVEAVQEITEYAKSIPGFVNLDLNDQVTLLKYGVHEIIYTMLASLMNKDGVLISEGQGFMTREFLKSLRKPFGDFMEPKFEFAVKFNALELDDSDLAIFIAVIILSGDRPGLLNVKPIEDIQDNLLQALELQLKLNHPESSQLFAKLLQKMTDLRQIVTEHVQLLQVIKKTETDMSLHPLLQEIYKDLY

[8] = target: T3, Peroxisome proliferator-activated receptor delta (Homo sapiens) (UniProt Q03181); experiment: Agonist activity at PPAR-delta (unknown origin) expressed in HEK293t cells co-transfected with tk-PPRE-luciferase vector at 10 uM after 24 hrs by transactivation assay relative to GW0742; type: cell-based; settings: HEK-293T
T3 sequence (whole entry): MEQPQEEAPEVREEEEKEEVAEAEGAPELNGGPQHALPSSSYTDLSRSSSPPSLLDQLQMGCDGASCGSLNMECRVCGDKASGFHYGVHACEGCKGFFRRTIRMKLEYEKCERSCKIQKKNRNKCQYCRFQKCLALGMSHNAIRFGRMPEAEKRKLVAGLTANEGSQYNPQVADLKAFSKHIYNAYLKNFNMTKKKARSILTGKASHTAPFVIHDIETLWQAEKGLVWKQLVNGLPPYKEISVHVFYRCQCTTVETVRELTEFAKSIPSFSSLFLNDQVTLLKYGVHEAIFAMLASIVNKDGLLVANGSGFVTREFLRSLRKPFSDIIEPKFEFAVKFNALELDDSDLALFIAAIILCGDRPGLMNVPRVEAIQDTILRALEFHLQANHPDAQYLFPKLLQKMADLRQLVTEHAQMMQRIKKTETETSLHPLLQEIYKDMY

[9] = target: T4, Peroxisome proliferator-activated receptor alpha (Homo sapiens, UniProt Q07869); experiment: Agonist activity at PPAR-alpha (unknown origin) expressed in CV-1 cells co-transfected with tk-PPRE-luciferase vector after 24 hrs by transactivation assay; type: cell-based
T4 sequence (Q07869 whole entry): T1 sequence (whole entry)

[10] = target: T5, Peroxisome proliferator-activated receptor gamma (Homo sapiens, UniProt P37231); experiment: Agonist activity at PPAR-gamma (unknown origin) expressed in CV-1 cells co-transfected with tk-PPRE-luciferase vector after 24 hrs by transactivation assay; type: cell-based
T5 sequence (P37231 whole entry): T2 sequence (whole entry)

[11] = target: T6, Peroxisome proliferator-activated receptor delta (Homo sapiens, UniProt Q03181); experiment: Agonist activity at PPAR-delta (unknown origin) expressed in HEK293t cells co-transfected with tk-PPRE-luciferase vector after 24 hrs by transactivation assay; type: cell-based, HEK-293T
T6 sequence (Q03181 whole entry): T3 sequence (whole entry)

Liver microsome [12] = experiment: Metabolic stability in human liver microsomes at 1 uM after 30 mins measured under phase 1 reaction by LC/MS/MS analysis; type: ADME; settings: 0.5 h
[13] = Metabolic stability in mouse liver microsomes at 1 uM after 30 mins measured under phase 1 reaction by LC/MS/MS analysis; type: ADME; settings: 0.5 h
Liver microsome [14] = experiment: Metabolic stability in human liver microsomes at 1 uM after 30 mins measured under phase 2 reaction by LC/MS/MS analysis; type: ADME; settings: 0.5 h
[15] = Metabolic stability in mouse liver microsomes at 1 uM after 30 mins measured under phase 2 reaction by LC/MS/MS analysis; type: ADME; settings: 0.5 h
Mus musculus [16] = experiment: Effect on body weight in C57BLKS/J-Lepr/Lepr db/db mouse at 3 to 10 mg/kg, po qd for 18 days administered via gavage; type: ADME, organism-based; settings: in vivo, 432 h
Mus musculus [17] = experiment: Decrease in fasting blood glucose level in C57BLKS/J-Lepr/Lepr db/db mouse at 3 to 10 mg/kg, po qd for 18 days administered via gavage by ELISA; type: functional, organism-based
Mus musculus [18] = experiment: Decrease in serum insulin level in C57BLKS/J-Lepr/Lepr db/db mouse at 3 to 10 mg/kg, po qd for 18 days administered via gavage by ELISA; type: functional, organism-based
Mus musculus [19] = experiment: Decrease in serum Hb1Ac level in C57BLKS/J-Lepr/Lepr db/db mouse at 3 to 10 mg/kg, po qd for 18 days administered via gavage by ELISA; type: functional, organism-based
Mus musculus [20] = experiment: Decrease in triglyceride content in C57BLKS/J-Lepr/Lepr db/db mouse liver at 3 mg/kg, po administered via gavage by hematoxylin-eosin staining; type: functional
Mus musculus [21] = experiment: Decrease in size of adipocytes in C57BLKS/J-Lepr/Lepr db/db mouse white adipose tissue at 10 mg/kg, po administered via gavage by hematoxylin-eosin staining relative to untreated control; type: functional
Mus musculus [22] = experiment: Decrease in size of adipocytes in C57BLKS/J-Lepr/Lepr db/db mouse white adipose tissue at 10 mg/kg, po administered via gavage by hematoxylin-eosin staining relative to rosiglitazone-treated control; type: functional
[23] = Retention time of the compound by HPLC analysis; type: physicochemical

SMILES: CN(CCOc1ccc(CC2SC(=O)NC2=O)cc1)c1ccccn1 (stereo not drawn) [ROSIGLITAZONE]
increase (Mus musculus [1]): 10% | inhibition (Mus musculus [2]): Active | inhibition (Mus musculus [3]): Active | inhibition (Mus musculus [4]): Active | Activity (Mus musculus [5]): 22%

Emax [6]: 31.2% | Emax [7]: 100% | Emax [8]: 82% | EC50 [9]: 8.6 µM | EC50 [10]: 0.5 µM | EC50 [11]: 2.2 µM | Stability (Liver microsome [12]): Stable | Stability [13]: Stable | Stability (Liver microsome [14]): Stable | Stability [15]: Stable | Retention_time [23]: 24.111 min
SMILES: O=C(O)Cc1cn(Cc2ccccc2)c2ccc(OCCCOc3cccc(OCc4ccc(Cl)cc4)c3)cc12
Activity (Mus musculus [16]): Non-toxic | inhibition (Mus musculus [17]): Active | inhibition (Mus musculus [18]): Active | inhibition (Mus musculus [19]): Active | inhibition in vivo at 3 mg/kg (Mus musculus [20]): 24% | inhibition in vivo at 10 mg/kg (Mus musculus [21]): 18% | inhibition in vivo at 10 mg/kg (Mus musculus [22]): 36%
